Data on 36 compounds can be found in ChEMBL document CHEMBL3045930, “Study on the quantitative structuretoxicity relationships of aconitine compounds basing on PCA-ANN method” (Med Chem Res, 2013).

The subject of this data set is Mus musculus. In words: Toxicity in po dosed Mus musculus (mouse). The format is organism-based. On the set-up: unit not given here. The settings on record: in vivo.

`CCN1C[C@]2(COC)[C@H](O)C[C@H](OC)[C@]34C1[C@@H]([C@H](OC)[C@H]23)[C@]1(OC(C)=O)[C@H]2[C@@H](OC(=O)c3ccccc3)[C@](O)(C[C@]24O)[C@@H](OC)[C@@H]1O` came in with a logLD50 of -0.66.

For `COC[C@@]12CC[C@H](OC)[C@]34C([C@@H]([C@H](OC)[C@H]13)[C@]1(O)[C@H]3[C@@H](OC(=O)c5ccccc5)[C@](O)(C[C@H]34)[C@@H](OC)[C@@H]1O)N(C)C2`, the logLD50 was found to be 1.36.

Turning to `CCN1C[C@]2(COC)[C@H](O)C[C@H](OC)[C@]34C1[C@@H]([C@H](OC)[C@H]23)[C@@]1(OC(C)=O)C[C@H](OC)[C@@]2(O)C[C@@H]4[C@@H]1[C@H]2OC(=O)c1ccc(OC)c(OC)c1`, the logLD50 is listed as 2.56.

`Br.CCN1C[C@]2(OC(=O)c3ccccc3NC(C)=O)CC[C@H](OC)[C@]34C1[C@@H](C[C@H]23)[C@@]1(O)C[C@H](OC)[C@H]2C[C@@H]4[C@]1(O)[C@H]2OC` showed a logLD50 of 0.92.

With `CCN1C[C@]2(COC)[C@H](O)C[C@H](OC)[C@]34C1[C@@H]([C@H](OC)[C@H]23)[C@]1(OC(C)=O)[C@H]2[C@@H](OC(=O)c3ccccc3)[C@](O)(C[C@H]24)[C@@H](OC)[C@@H]1O` (stereo in doubt; 12), the logLD50 is -0.78.

`Br.CCN1C[C@]2(COC)[C@H](O)C[C@H](OC)[C@]34C1[C@@H]([C@H](OC)[C@H]23)[C@]1(OC(C)=O)[C@H]2[C@@H](OC(=O)c3ccccc3)[C@](O)(C[C@H]24)[C@@H](OC)[C@@H]1O` had a logLD50 of -0.87.

In turn, `CCN1C[C@]2(COC)[C@H](O)C[C@H](OC)[C@]34C1[C@@H]([C@H](OC)[C@H]23)[C@]1(O)[C@H]2[C@@H](OC(=O)c3ccccc3)[C@](O)(C[C@H]24)[C@@H](OC)[C@@H]1O` yielded a logLD50 of 1.

In the case of `CCN1C[C@@]2(COC)[C@H]3[C@@H](OC)[C@@H]4C1[C@]3([C@@H](OC)C[C@H]2OC(C)=O)[C@@H]1C[C@]2(O)[C@@H](OC)C[C@@]4(OC(C)=O)[C@H]1[C@H]2OC(=O)c1ccccc1`, the logLD50 was found to be 3.16.

For `CCN1C[C@@H]2CC[C@H](OC)[C@]34C1[C@@H](C[C@H]23)[C@@]1(O)C[C@@H](OC)[C@@]2(O)C[C@@H]4[C@@H]1[C@H]2OC(=O)c1ccccc1`, the logLD50 is recorded as 1.45.

`CCN1C[C@]2(C)CC[C@H](O)[C@]34C1[C@@H](C[C@H]23)[C@@]1(O)C[C@H](OC)[C@H]2C[C@@H]4[C@@H]1[C@H]2O` [KARAKOLINE] yielded a logLD50 of 1.71.

Compound `Br.COC[C@@]12CC[C@H](OC)[C@]34C([C@@H]([C@H](OC)[C@H]13)[C@]1(OC(C)=O)[C@H]3[C@@H](OC(=O)c5ccccc5)[C@](O)(C[C@H]34)[C@@H](OC)[C@@H]1O)N(C)C2` showed a logLD50 of -0.27.

For `CCN1C[C@]2(COC(=O)c3ccccc3N3C(=O)C[C@H](C)C3=O)CC[C@H](OC)[C@]34C1[C@@](O)([C@@H](OC)[C@H]23)[C@@]1(O)C[C@H](OC)[C@H]2C[C@@H]4[C@@H]1[C@H]2OC`, the logLD50 came to 0.48.

`CCN1C[C@]2(COC)CC[C@H](OC)[C@]34C1[C@@H](C[C@H]23)[C@@]1(O)C[C@H](OC)[C@H]2C[C@@H]4[C@@H]1[C@H]2O` yielded a logLD50 of -0.94.

Compound `CCN1C[C@]2(COC)CC[C@H](O)[C@]34C1[C@@](O)([C@@H](OC)[C@H]23)[C@@]1(O)C[C@H](OC)[C@H]2C[C@@H]4[C@@H]1[C@H]2OC.Cl` came in with a logLD50 of 2.07.

`CCN1C[C@]2(O)CC[C@H](OC)[C@]34C1[C@@H](C[C@H]23)[C@@]1(O)C[C@H](OC)[C@H]2C[C@@H]4[C@]1(O)[C@H]2OC` had a logLD50 of 2.15.

In the case of `Br.CCN1C[C@]2(COC)[C@H](O)C[C@H](OC)[C@]34C1[C@@H]([C@H](OC)[C@H]23)[C@]1(O)[C@H]2[C@@H](OC(=O)c3ccccc3)[C@](O)(C[C@H]24)[C@@H](OC)[C@@H]1O`, the logLD50 was determined as 1.41.

`CCN1C[C@]2(COC)[C@H](O)C[C@H](OC)[C@]34C1[C@@H]([C@H](OC)[C@H]23)[C@@]1(O)C[C@H](OC)[C@@]2(O)C[C@@H]4[C@@H]1[C@H]2OC(=O)c1ccccc1` came in with a logLD50 of 2.15.

In turn, `CCN1C[C@@]2(COC)[C@H]3[C@@H](OC)[C@@H]4C1[C@]3([C@@H](OC)C[C@H]2OC(C)=O)[C@@H]1C[C@@]2(OC(C)=O)[C@H](OC(=O)c3ccccc3)[C@@H]1[C@]4(OC(C)=O)[C@@H](OC(C)=O)[C@@H]2OC` registered a logLD50 of 2.1.

Consider `CCN1C[C@@]2(COC)[C@H]3[C@@H](OC)[C@@H]4C1[C@]3([C@@H](OC)C[C@H]2OC(C)=O)[C@@H]1C[C@@]2(OC(C)=O)[C@H](OC(C)=O)[C@@H]1[C@]4(OC(C)=O)[C@@H](OC(C)=O)[C@@H]2OC`, for which the logLD50 was found to be 2.83.

With `Br.COC[C@@]12CC[C@H](OC)[C@]34C([C@@H]([C@H](OC)[C@H]13)[C@]1(O)[C@H]3[C@@H](OC(=O)c5ccccc5)[C@](O)(C[C@H]34)[C@@H](OC)[C@@H]1O)N(C)C2`, the logLD50 worked out at 1.41.

Consider `CCN1C[C@@]2(COC)[C@H]3[C@@H](OC)[C@@H]4C1[C@]3([C@@H](OC)C[C@H]2OC(C)=O)[C@@H]1C[C@]2(OC(C)=O)[C@@H](OC)C[C@@]4(OC(C)=O)[C@H]1[C@H]2OC(=O)c1ccccc1`, for which the logLD50 came to 1.34.

With `CCN1C[C@@]2(COC)[C@H]3[C@@H](OC)[C@@H]4C1[C@]3([C@@H](OC)C[C@H]2OC(C)=O)[C@@H]1C[C@]2(OC(C)=O)[C@@H](OC)C[C@@]4(OC(C)=O)[C@H]1[C@H]2OC(C)=O`, the logLD50 turned out to be 2.18.

Compound `CCN1C[C@]2(COC)[C@H](O)C[C@H](OC)[C@]34C1[C@@H]([C@H](OC)[C@H]23)[C@@]1(OC(C)=O)C[C@H](OC)[C@@]2(O)C[C@@H]4[C@@H]1[C@H]2OC(=O)c1ccccc1` had a logLD50 of -0.33.

In turn, `CCN1C[C@]2(OC(=O)c3ccccc3NC(C)=O)CC[C@H](OC)[C@]34C1[C@@H](C[C@H]23)[C@@]1(O)C[C@H](OC)[C@H]2C[C@@H]4[C@]1(O)[C@H]2OC` returned a logLD50 of 0.84.

Consider `CCN1C[C@]2(OC(=O)c3ccccc3NC(C)=O)CC[C@H](OC)[C@]34C1[C@@H](C[C@H]23)[C@@]1(OC(C)=O)C[C@H](OC)[C@H]2C[C@@H]4[C@]1(OC(C)=O)[C@H]2OC`, for which the logLD50 was determined as 1.16.

Turning to `CCN1C[C@]2(C)CC[C@H](OC)[C@@]34C1[C@@]1(OCO[C@@]15C[C@H](OC)[C@H]1C[C@]3(O)[C@@H]5[C@H]1OC)[C@@H](OC(C)=O)[C@H]24`, the logLD50 came out at 2.12.

Take `COC[C@]12CN(C)C3[C@H]4[C@H](OC)[C@H]1[C@@]3([C@@H](OC)C[C@H]2O)[C@@H]1C[C@@]2(O)[C@H](OC(=O)c3ccccc3)[C@@H]1[C@]4(OC(C)=O)[C@@H](OC)[C@@H]2O`: the logLD50 is recorded as -1.

For the compound `Br.COC[C@]12CN(C)C3[C@H]4[C@H](OC)[C@H]1[C@@]3([C@@H](OC)C[C@H]2O)[C@@H]1C[C@@]2(O)[C@H](OC(=O)c3ccccc3)[C@@H]1[C@]4(OC(C)=O)[C@@H](O)[C@@H]2OC`, the logLD50 is given as -0.95.

`Br.COC[C@]12CN(C)C3[C@H]4[C@H](OC)[C@H]1[C@@]3([C@@H](OC)C[C@H]2O)[C@@H]1C[C@@]2(O)[C@H](OC(=O)c3ccccc3)[C@@H]1[C@]4(O)[C@@H](O)[C@@H]2OC` registered a logLD50 of 1.38.

Regarding `COC[C@]12CN(C)C3[C@H]4[C@H](OC)[C@H]1[C@@]3([C@@H](OC)C[C@H]2O)[C@@H]1C[C@@]2(O)[C@H](OC(=O)c3ccccc3)[C@@H]1[C@]4(O)[C@@H](O)[C@@H]2OC`, the logLD50 was 1.32.

On to `CCN1C[C@]2(COC)CC[C@H](O)[C@]34C1[C@@](O)([C@@H](OC)[C@H]23)[C@@]1(O)C[C@H](OC)[C@H]2C[C@@H]4[C@@H]1[C@H]2O`, for which the logLD50 is given as 2.04.

For `CCN1C[C@]2(COC)CC[C@H](O)[C@]34C1[C@@](O)([C@@H](OC)[C@H]23)[C@@]1(O)C[C@H](OC)[C@H]2C[C@@H]4[C@@H]1[C@H]2OC` [DELSOLINE], the logLD50 is 2.24.

`CCN1C[C@]2(COC(=O)c3ccccc3N3C(=O)C[C@H](C)C3=O)CC[C@H](OC)[C@@]34C1[C@@]1(OCO[C@@]15C[C@H](OC)[C@H]1C[C@@H]3[C@@H]5[C@H]1OC)[C@@H](OC)[C@H]24` [ELATINE] gave a logLD50 of 0.7.

With `COC[C@@]12CC[C@H](OC)[C@]34C([C@@H]([C@H](OC)[C@H]13)[C@]1(OC(C)=O)[C@H]3[C@@H](OC(=O)c5ccccc5)[C@](O)(C[C@H]34)[C@@H](OC)[C@@H]1O)N(C)C2`, the logLD50 was -0.33.

With `CCN1C[C@]2(COC)[C@H](O)C[C@H](OC)[C@]34C1[C@@H]([C@H](OC)[C@H]23)[C@]1(OC(C)=O)[C@H]2[C@@H](OC(=O)c3ccccc3)[C@](O)(C[C@H]24)[C@@H](OC)[C@@H]1O` (stereo in doubt; 1), the logLD50 is -0.92.

Take `CCN1C[C@@]2(COC)[C@H]3[C@@H](OC)[C@@H]4C1[C@]3([C@@H](OC)C[C@H]2OC(C)=O)[C@@H]1C[C@@]2(O)[C@H](OC(=O)c3ccccc3)[C@@H]1[C@]4(OC(C)=O)[C@@H](O)[C@@H]2OC`: the logLD50 is reported as -0.4.
